Earlier results on 21 molecules are cited in article PMC10251984, “Interactions of IDO and the Kynurenine Pathway with Cell Transduction Systems and Metabolism at the Inflammation–Cancer Interface” (Cancers, 2023).

Where two headings read alike, the source gives them in different places.

Data set [1] relates to IDO2. Further details: method as in PMID 29247038. To be noted: relative to the D-isomer.
The test system of data set [2] is activated human CD4+T cells. Further details: method as in PMID 32641388. As to conditions: each compound separately.
In data set [3] the test system is multiple myeloma. Further details: method as in PMID 29089645, PMID 29487385.
The subject of data set [4] is PD-L1. As to conditions: disrupts the interaction between Myc and HIF-1α.
Data set [5] has as its system Lewis lung carcinomas. On the set-up: method as in PMID 32847988. As to conditions: combination with celecoxib.
The test system of data set [6] is AHR. Further details: method as in PMID 34025677. As to conditions: AHR antagonist; induction by kynurenine in CD8+ T cells.
The subject of data set [7] is T cell activation. Further details: method as in PMID 35663990. To be noted: glutaminase inhibitor; autoimmune hepatitis.
In data set [8] the test system is IDO1. On the set-up: method as in PMID 30227893, PMID 35269712. To be noted: IDO1 inhibitor; read-out: IC50 in direct enzyme assay.
Data set [9] has as its system melanoma.
On the set-up of data set [10]: method as in PMID 29040756, PMID 25330068.
For data set [11], the system named is Metastatic prostate cancer. To be noted: combination with sipuleucel-T; Phase 2.
Data set [12] deals with Metastatic breast cancer. As to conditions: compared with taxane; Phase 2.
Data set [13] relates to IDO. Further details: method as in PMID 32024760. To be noted: IDO activity enhanced.
Data set [14] concerns IDO2. On the set-up: method as in PMID 36389710.
Data set [15] concerns IDO1. Further details: method as in PMID 36389710.
Data set [16] deals with T cell. On the set-up: method as in PMID 31648326. As to conditions: MEK inhibitor.
In data set [17] the test system is IDO1. Further details: method as in PMID 28212885. To be noted: COX-2 inhibitor.
For data set [18], the system named is experimental arthritis. Further details: method as in PMID 33941676. To be noted: IDO-dependent manner.
The test system of data set [19] is PD-L1. Further details: method as in PMID 33220359.
The test system of data set [20] is triple-negative breast cancer, colon and lung syngeneic tumor models. Further details: method as in PMID 35265193. As to conditions: combined with an anti-PD-L1 antibody.
Data set [21] deals with IDO. Further details: method as in PMID 35120895. As to conditions: via inhibition of the JAK–STAT–IRF1 pathway.
In data set [22] the test system is PD-L1. Further details: method as in PMID 35120895. As to conditions: via inhibition of the JAK–STAT–IRF1 pathway.
Data set [23] relates to IDO1. To be noted: COX-2 inhibition; IFNγ-induced.

Consider `Cn1cc(C[C@H](N)C(=O)O)c2ccccc21` (single isomer, unassigned; isomer 1) [L-isomer, 1-methyl-tryptophan], for which the “inhibiting IDO2” value in [1] was “much more active”.
On to `O=CC[C@@H](O)[C@H](O)[C@H](O)CO` [2-deoxyglucose], for which the IFNγ production result in data set [2] was “inhibit IFNγ production”.
Consider `O=C(CCCCCCNC(=O)c1cnc(N(c2ccccc2)c2ccccc2Cl)nc1)NO` [ACY241], for which, in data set [3], the “efficacy against multiple myeloma” value is “effective”.
For `C=C1C(=O)O[C@H]2C[C@@H](C)[C@@H]3[C@@H](OC(C)=O)C[C@H](O)[C@@]3(C)[C@@H](OC(C)=O)[C@H]12` [Britannin], the “expression of PD-L1” value in [4] was “reducing the expression of PD-L1”.
Consider `Nc1ncnc2c1ncn2[C@@H]1O[C@@H]2COP(=O)(O)O[C@H]3[C@@H](O)[C@H](n4cnc5c(N)ncnc54)O[C@@H]3COP(=O)(O)O[C@H]2[C@H]1O` [CDA, cyclic di-adenyl monophosphate], for which, in data set [5], the survival entry is listed as “enhanced survival” and the tumor growth result is on record as “controlled tumor growth”.
For `Cc1ccccc1N=Nc1ccc(NC(=O)c2ccnn2C)c(C)c1` [CH223191], the “induction of PD-1” value in data set [6] is given as “blocked the induction of PD-1”.
On to `[N-]=[N+]=CC(=O)CC[C@H](N)C(=O)O` [DON, 6-diazo-5-oxo-L-norleucine], for which the T cell activation result in [7] is listed as “inhibited T cell activation”.
One may read the IC50 as the concentration at which inhibition is half-maximal. On to `NS(=O)(=O)NCCNc1nonc1C(=NO)Nc1ccc(F)c(Br)c1` [Epacadostat], for which the IC50 in data set [8] is […]. The trial outcome in [9] (combined with the PD-1 antagonist pembrolizumab) was “no significant benefit”. Moreover, in data set [9] (randomized trial combined with pembrolizumab in patients with melanoma), the clinical efficacy entry was “clinically ineffective”.
Turning to `O=Cc1c2[nH]c3ccccc3c2cc2[nH]c3ccccc3c12` [FICZ, 6-Formylindolo-[3,2-b]-carbazole], the metabolism / removal result in [10] is “rapidly removed”.
As to `Cn1cc(C[C@@H](N)C(=O)O)c2ccccc21` [Indoximod, 1-methyl-D-tryptophan], the trial outcome in data set [11] was “[224] Combination with sipuleucel-T yielded radiological and clinical improvement”; in data set [12] it was “[226] No improvement compared with taxane”.
Regarding `CC(=O)NCCc1c[nH]c2ccc(O)cc12` [N-acetyl-5-hydroxy-tryptamine], the “mode of action on IDO activity” value in data set [13] is on record as “positive allosteric modulator”.
Consider `CCCCCCCC1=Nc2ccccc2C(=O)C1O` (stereo not shown) [PQS, 2-heptyl-3-hydroxy-4-quinolone], for which, in data set [14], the “expression of IDO2” value is listed as “inhibits”. In data set [15], the “expression of IDO1” value was “inhibits”.
As to `Clc1cc2c(cc1Cl)Oc1cc(Cl)c(Cl)cc1O2` [TCDD, 2,3,7,8-tetrachloro-dibenzo-dioxin], in [10], the metabolism / removal result is “poorly metabolized”.
On to `CC(=O)Nc1cccc(-n2c(=O)n(C3CC3)c(=O)c3c(Nc4ccc(I)cc4F)n(C)c(=O)c(C)c32)c1` [Trametinib], for which, in data set [16], the “T cell viability and proliferation” value is “promote T cell viability and proliferation”.
On to `Cc1ccc(-c2cc(C(F)(F)F)nn2-c2ccc(S(N)(=O)=O)cc2)cc1` [celecoxib], for which the “induction of IDO1” value in data set [17] is listed as “prevented the induction of IDO1”.
Consider `Nc1ncn([C@H]2C[C@H](O)[C@@H](CO)O2)c(=O)n1` [decitabine], for which, in data set [18], the occurrence of relapse result is on record as “prevented the occurrence of relapse” and the symptoms of arthritis entry was “reduced the symptoms of arthritis”.
For `COc1ccc(CCc2cc(OC)c(OC)c(OC)c2)cc1O` [erianin], in data set [19], the PD-L1 expression result was “inhibited PD-L1 expression”.
For `CCCNS(=O)(=O)Nc1ncnc(OCCOc2ncc(Br)cn2)c1-c1ccc(Br)cc1` [macitentan], the anti-tumor efficacy entry in data set [20] is given as “improved anti-tumor efficacy”.
For the molecule `CN(C)C(=N)N=C(N)N` [metformin], in data set [2], the IFNγ production entry was “inhibit IFNγ production”.
With `O=c1c(O)c(-c2cc(O)c(O)c(O)c2)oc2cc(O)cc(O)c12` [myricetin], in [21], the “induction of IDO by IFNγ” value is “prevent the induction”. Moreover, the “induction of PD-L1 by IFNγ” value in [22] was “prevent the induction”.
With `CS(=O)(=O)Nc1ccc([N+](=O)[O-])cc1Oc1ccccc1` [nimesulide], the “induction of IDO1” value in [23] is listed as “prevented induction of IDO1”.
